Assay results published in ChEMBL document CHEMBL5291721, “A preclinical secondary pharmacology resource illuminates target-adverse drug reaction associations of marketed drugs” (Nat Commun, 2023).

What was measured:
[1] = biological target: T1, Thromboxane A2 receptor (Homo sapiens, UniProt P21731)
T1 sequence (P21731 whole entry): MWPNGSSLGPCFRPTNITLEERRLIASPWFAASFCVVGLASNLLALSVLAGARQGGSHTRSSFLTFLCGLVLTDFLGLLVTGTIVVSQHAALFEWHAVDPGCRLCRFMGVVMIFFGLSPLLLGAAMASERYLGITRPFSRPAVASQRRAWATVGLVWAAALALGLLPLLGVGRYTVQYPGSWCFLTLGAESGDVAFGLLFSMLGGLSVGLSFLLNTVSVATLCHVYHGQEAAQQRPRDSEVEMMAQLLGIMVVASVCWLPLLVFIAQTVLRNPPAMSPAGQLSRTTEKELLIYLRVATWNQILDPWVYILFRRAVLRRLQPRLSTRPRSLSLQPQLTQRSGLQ

[2] = biological target: Muscarinic acetylcholine receptor M3 (Homo sapiens, UniProt P20309)
[3] = biological target: T2, Estrogen receptor (Homo sapiens, UniProt P03372)
T2 sequence (P03372 whole entry): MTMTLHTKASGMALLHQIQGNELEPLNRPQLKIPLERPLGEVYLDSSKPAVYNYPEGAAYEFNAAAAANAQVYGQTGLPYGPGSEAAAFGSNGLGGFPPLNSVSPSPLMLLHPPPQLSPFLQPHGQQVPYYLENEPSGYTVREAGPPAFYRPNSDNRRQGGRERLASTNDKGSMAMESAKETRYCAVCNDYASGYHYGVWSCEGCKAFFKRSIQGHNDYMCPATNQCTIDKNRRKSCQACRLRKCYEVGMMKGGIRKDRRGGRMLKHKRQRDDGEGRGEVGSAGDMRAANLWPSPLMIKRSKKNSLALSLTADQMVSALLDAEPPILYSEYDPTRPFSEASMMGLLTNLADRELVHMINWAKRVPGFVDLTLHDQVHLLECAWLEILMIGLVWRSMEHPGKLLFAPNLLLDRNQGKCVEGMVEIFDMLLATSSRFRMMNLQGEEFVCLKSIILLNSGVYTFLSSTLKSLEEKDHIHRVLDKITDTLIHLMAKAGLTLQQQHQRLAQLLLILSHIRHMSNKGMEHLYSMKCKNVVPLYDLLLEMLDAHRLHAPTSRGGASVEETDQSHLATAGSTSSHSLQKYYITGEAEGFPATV

[4] = biological target: Histamine H3 receptor (Homo sapiens, UniProt Q9Y5N1)
[5] = biological target: T3, Progesterone receptor (Homo sapiens, UniProt P06401); format: functional
T3 sequence (P06401 whole entry): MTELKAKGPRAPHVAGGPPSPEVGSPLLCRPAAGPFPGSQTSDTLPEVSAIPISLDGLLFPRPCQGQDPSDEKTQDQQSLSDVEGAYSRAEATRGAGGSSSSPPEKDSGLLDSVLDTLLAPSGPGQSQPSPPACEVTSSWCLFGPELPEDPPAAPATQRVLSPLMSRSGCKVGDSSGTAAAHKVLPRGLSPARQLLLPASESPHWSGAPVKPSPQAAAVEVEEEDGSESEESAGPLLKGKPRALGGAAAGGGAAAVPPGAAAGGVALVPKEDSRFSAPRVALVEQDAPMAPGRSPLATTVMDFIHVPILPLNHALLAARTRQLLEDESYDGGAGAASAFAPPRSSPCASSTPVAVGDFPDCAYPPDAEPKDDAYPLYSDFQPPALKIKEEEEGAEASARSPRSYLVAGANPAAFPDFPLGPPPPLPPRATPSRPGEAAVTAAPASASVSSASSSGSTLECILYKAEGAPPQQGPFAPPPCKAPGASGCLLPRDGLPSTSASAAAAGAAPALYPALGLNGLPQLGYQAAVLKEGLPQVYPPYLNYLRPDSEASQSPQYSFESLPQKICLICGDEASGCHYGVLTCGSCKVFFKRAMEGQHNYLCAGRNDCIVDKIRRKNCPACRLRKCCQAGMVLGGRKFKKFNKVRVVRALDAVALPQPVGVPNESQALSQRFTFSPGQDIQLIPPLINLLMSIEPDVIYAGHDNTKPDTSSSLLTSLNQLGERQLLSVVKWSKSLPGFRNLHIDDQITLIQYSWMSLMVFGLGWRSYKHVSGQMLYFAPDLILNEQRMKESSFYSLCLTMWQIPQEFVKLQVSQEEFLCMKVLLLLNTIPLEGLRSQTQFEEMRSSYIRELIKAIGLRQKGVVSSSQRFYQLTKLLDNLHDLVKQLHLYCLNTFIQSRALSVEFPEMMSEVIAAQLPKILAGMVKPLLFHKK

[6] = biological target: T4, Gastrin/cholecystokinin type B receptor (Homo sapiens, UniProt P32239)
T4 sequence (P32239 whole entry): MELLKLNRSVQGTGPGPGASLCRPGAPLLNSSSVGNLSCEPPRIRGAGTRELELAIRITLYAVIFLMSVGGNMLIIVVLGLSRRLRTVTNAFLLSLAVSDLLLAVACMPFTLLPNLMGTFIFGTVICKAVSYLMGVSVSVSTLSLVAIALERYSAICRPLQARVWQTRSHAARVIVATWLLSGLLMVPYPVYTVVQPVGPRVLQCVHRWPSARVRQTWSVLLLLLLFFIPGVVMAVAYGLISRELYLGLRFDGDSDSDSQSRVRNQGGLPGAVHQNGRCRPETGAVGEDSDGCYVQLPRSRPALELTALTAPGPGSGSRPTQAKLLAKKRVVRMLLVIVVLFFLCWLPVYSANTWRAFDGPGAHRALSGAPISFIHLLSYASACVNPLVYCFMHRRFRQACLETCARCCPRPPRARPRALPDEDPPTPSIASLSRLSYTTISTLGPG
Also: assay procedure not described here.

Sequence of Histamine H3 receptor (Q9Y5N1 whole entry): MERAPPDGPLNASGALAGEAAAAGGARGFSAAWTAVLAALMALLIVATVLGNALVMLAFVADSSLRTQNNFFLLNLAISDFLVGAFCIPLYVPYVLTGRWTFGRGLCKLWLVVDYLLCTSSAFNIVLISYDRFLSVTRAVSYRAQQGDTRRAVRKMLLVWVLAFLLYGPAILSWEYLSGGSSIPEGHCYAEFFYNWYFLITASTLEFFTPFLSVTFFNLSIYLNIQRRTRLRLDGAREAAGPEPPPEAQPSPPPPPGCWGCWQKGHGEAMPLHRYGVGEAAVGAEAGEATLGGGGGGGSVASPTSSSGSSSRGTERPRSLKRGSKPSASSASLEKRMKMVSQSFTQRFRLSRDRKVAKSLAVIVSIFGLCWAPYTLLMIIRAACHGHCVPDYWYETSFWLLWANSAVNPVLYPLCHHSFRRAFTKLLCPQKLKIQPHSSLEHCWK
Sequence of Muscarinic acetylcholine receptor M3 (P20309 whole entry): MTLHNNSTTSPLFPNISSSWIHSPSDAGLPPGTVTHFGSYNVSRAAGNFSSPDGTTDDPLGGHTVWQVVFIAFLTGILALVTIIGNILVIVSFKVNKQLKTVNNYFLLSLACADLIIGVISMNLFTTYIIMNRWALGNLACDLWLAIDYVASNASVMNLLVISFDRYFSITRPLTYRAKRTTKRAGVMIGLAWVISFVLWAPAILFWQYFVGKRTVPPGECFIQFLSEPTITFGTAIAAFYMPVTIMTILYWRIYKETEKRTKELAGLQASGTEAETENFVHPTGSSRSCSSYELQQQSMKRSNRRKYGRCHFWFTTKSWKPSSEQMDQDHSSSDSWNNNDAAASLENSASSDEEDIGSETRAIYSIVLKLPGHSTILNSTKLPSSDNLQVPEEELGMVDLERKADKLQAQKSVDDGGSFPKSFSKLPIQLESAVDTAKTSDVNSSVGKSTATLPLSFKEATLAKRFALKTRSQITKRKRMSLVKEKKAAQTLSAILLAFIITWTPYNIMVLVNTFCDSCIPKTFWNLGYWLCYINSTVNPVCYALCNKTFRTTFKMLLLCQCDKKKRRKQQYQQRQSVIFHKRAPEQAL

Row | SMILES | AC50 [1] | AC50 [2] | AC50 [3] | AC50 [4] | AC50 [5] | AC50 [6]
1 | O=C(O)c1cccc(-c2noc(-c3ccccc3F)n2)c1 | > 30 µM | – | – | – | – | –
2 | CO/N=C(\C(=O)N[C@@H]1C(=O)N2C(C(=O)OCOC(=O)C(C)(C)C)=C(C)CS[C@H]12)c1csc(N)n1 | – | > 30 µM | – | – | – | –
3 | NS(=O)(=O)c1cc(-c2nnn[nH]2)c(NCc2cccs2)cc1Cl [AZOSEMIDE] | > 30 µM | > 30 µM | > 30 µM | > 30 µM | > 30 µM | > 30 µM
4 | O=C(Cn1ccnc1[N+](=O)[O-])NCc1ccccc1 [BENZNIDAZOLE] | > 30 µM | > 30 µM | > 30 µM | > 30 µM | > 30 µM | > 30 µM
5 | C[N+](C)(C)CC(=O)O [BETAINE] | > 30 µM | > 30 µM | > 30 µM | > 30 µM | > 30 µM | > 30 µM
6 | CCCC(=O)N1CCCN(c2nc(N)c3cc(OC)c(OC)cc3n2)CC1 [BUNAZOSIN] | – | > 30 µM | > 30 µM | > 30 µM | > 30 µM | > 30 µM
7 | C[N+](C)(C)CCOC(N)=O [CARBAMOYLCHOLINE] | > 10 µM | – | – | – | > 10 µM | –
8 | N[C@@H](CSCC(=O)O)C(=O)O [CARBOCYSTEINE] | > 30 µM | > 30 µM | > 30 µM | > 30 µM | > 30 µM | > 30 µM
9 | COCC1=C(C(=O)OC(C)OC(=O)OC(C)C)N2C(=O)[C@@H](NC(=O)/C(=N\OC)c3csc(N)n3)[C@H]2SC1 (stereo partly specified) [CEFPODOXIME PROXETIL] | – | > 30 µM | – | – | – | –
10 | CC(C)(N)Cc1ccc(Cl)cc1 [CHLORPHENTERMINE] | > 30 µM | > 30 µM | > 30 µM | > 10 µM | – | > 30 µM
11 | NS(=O)(=O)c1cc2c(cc1Cl)NC(CC1CCCC1)NS2(=O)=O (stereo unspecified) [CYCLOPENTHIAZIDE] | – | > 30 µM | – | – | – | –
12 | CN(C)[C@@H]1C(O)=C(C(N)=O)C(=O)[C@@]2(O)C(O)=C3C(=O)c4c(O)ccc(Cl)c4[C@@H](O)[C@H]3C[C@@H]12 [DEMECLOCYCLINE] | > 10 µM | > 30 µM | – | – | > 30 µM | –
13 | NS(=O)(=O)c1cc(Cl)c(Cl)c(S(N)(=O)=O)c1 [DICHLORPHENAMIDE] | > 10 µM | > 30 µM | – | > 10 µM | > 10 µM | –
14 | O=C(Nc1ccccc1)OCC(CN1CCCCC1)OC(=O)Nc1ccccc1 (stereo unspecified) [DIPERODON] | > 30 µM | > 10 µM | > 30 µM | > 10 µM | – | > 30 µM
15 | N/N=c1/cc2c(n[nH]1)CCN(C(=O)c1ccccc1)C2 [ENDRALAZINE] | – | > 30 µM | – | – | – | –
16 | C=C1C[C@@H]2[C@H](CC[C@]3(C)C(=O)CC[C@@H]23)[C@@]2(C)C=CC(=O)C=C12 [EXEMESTANE] | > 30 µM | > 30 µM | > 30 µM | > 10 µM | – | > 30 µM
17 | CC(C(O)c1ccc(O)cc1)N1CCC(Cc2ccccc2)CC1 (stereo unspecified) [IFENPRODIL] | > 30 µM | > 30 µM | > 30 µM | > 30 µM | – | > 30 µM
18 | CS(=O)(=O)Nc1cc2occ(NC=O)c(=O)c2cc1Oc1ccccc1 [IGURATIMOD] | – | – | – | – | > 30 µM | –
19 | CC(=O)N(CC(O)CO)c1c(I)c(C(=O)NCC(O)CO)c(I)c(C(=O)NCC(O)CO)c1I (stereo unspecified) [IOHEXOL] | > 30 µM | > 30 µM | > 30 µM | > 10 µM | – | > 30 µM
20 | CN(CCCN1c2ccccc2CCc2ccccc21)CC(=O)c1ccc(Cl)cc1 [LOFEPRAMINE] | > 30 µM | – | > 30 µM | > 30 µM | – | > 30 µM
21 | CN1C(=O)N(C)C2C1N(C)C(=O)N2C (stereo unspecified) [MEBICAR] | – | > 30 µM | – | – | – | –
22 | CC(=O)O[C@]1(C(C)=O)CC[C@H]2[C@@H]3C[C@H](C)C4=CC(=O)CC[C@]4(C)[C@H]3CC[C@@]21C [MEDROXYPROGESTERONE ACETATE] | – | – | – | > 30 µM | – | > 30 µM
23 | CN(C/C=C/c1ccccc1)Cc1cccc2ccccc12 [NAFTIFINE] | > 30 µM | > 30 µM | > 30 µM | > 10 µM | > 30 µM | > 30 µM
24 | CC(C)NCC1CCc2cc(CO)c([N+](=O)[O-])cc2N1 (stereo unspecified) [OXAMNIQUINE] | > 10 µM | > 30 µM | > 10 µM | > 10 µM | > 10 µM | –
25 | Nc1ccc(/N=N/c2ccccc2)c(N)n1 [PHENAZOPYRIDINE] | – | 3.6 µM | – | – | – | –
26 | CN(C)CCCN1c2ccccc2Sc2ccccc21 [PROMAZINE] | > 30 µM | – | – | > 10 µM | – | > 30 µM
27 | O=C(O)CCn1c2c(c3ccccc31)C[C@H](NS(=O)(=O)c1ccc(F)cc1)CC2 [RAMATROBAN] | 0.0311 µM | > 30 µM | > 30 µM | > 30 µM | > 30 µM | > 30 µM
28 | O=P(O)(O)C(O)(Cc1cccnc1)P(=O)(O)O [RISEDRONIC ACID] | > 30 µM | – | > 30 µM | > 30 µM | > 30 µM | > 30 µM
29 | O=C1CCC(N2C(=O)c3ccccc3C2=O)C(=O)N1 (stereo unspecified) [THALIDOMIDE] | > 30 µM | – | – | > 10 µM | – | > 30 µM
30 | CC(=O)N[C@H]1[C@H]([C@H](O)[C@H](O)CO)OC(C(=O)O)=C[C@@H]1N=C(N)N [ZANAMIVIR] | > 30 µM | > 30 µM | > 30 µM | > 30 µM | > 30 µM | > 30 µM
